Experimental data as given in patent US12433295B2, “Small-scale robots for biofilm eradication” (THE TRUSTEES OF THE UNIVERSITY OF PENNSYLVANIA, priority 2018, dated 2025).

System: biofilm extracellular matrix
Assay: dose dependent extracellular matrix degradation of the enzymes mutanase and dextranase (FIG. 4)
Type: cell-based
Conditions: combination of mutanase and dextranase
From the text: FIG. 4 depicts the dose dependent extracellular matrix degradation of the enzymes mutanase and dextranase.
FIG. 4 depicts the dose dependent extracellular matrix degradation of the enzymes mutanase and dextranase in accordance with an embodiment of disclosed subject matter. While the catalytic function of iron oxide nanoparticles degrades the biofilm matrix more slowly than it substantially eradicates the bacteria, the rate of degradation can be enhanced with enzymes including mutanase and dextranase. A combination of 1.75 U mutanase and 8.75 U dextranase achieves maximal efficacy for extracellular matrix degradation.

Row | Substance | amount that achieves maximal efficacy for extracellular matrix degradation [U]
1 | dextranase | 8.75
2 | mutanase | 1.75
